Target: T1, Growth factor receptor-bound protein 10 (Homo sapiens, UniProt Q13322)
T1 sequence (Q13322 whole entry): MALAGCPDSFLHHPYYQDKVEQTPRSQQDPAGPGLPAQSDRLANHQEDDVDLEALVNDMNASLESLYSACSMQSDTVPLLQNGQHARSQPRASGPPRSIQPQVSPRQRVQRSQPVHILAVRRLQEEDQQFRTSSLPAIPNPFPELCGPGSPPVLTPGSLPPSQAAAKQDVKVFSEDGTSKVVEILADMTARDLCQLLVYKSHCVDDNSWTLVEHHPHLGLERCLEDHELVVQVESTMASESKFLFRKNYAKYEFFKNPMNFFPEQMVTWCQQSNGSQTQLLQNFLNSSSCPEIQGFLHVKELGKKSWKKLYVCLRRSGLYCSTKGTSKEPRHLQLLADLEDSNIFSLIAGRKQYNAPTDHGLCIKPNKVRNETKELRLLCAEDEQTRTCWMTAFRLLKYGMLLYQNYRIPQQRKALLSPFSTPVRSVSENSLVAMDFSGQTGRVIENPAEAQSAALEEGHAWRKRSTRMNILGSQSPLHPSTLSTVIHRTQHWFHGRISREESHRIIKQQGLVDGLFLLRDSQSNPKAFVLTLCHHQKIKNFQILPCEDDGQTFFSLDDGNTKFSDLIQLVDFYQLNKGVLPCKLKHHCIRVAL
Experiment: Binding affinity to GST-tagged Grb10-SH2 domain (471 to 594 amino acid residues) (unknown origin) expressed in Escherichia coli BL21 (DE3) using 20 mM Tris/1 mM NaPO4 buffer by SPR analysis; call rule not given here

- Kd: Not Active
SMILES: C[C@@H](O)[C@@H]1NC(=O)[C@H](CC(N)=O)NC(=O)[C@H](CC(=O)O)NC(=O)[C@H](Cc2ccc(O)cc2)NC(=O)CNC(=O)[C@H](CCC(=O)O)NC(=O)[C@H](Cc2ccccc2)NC(=O)[C@H](Cc2c[nH]c3ccccc23)NC(=O)CSC[C@@H](C(N)=O)NC(=O)[C@@H]2CCCN2C(=O)[C@H](Cc2ccccc2)NC1=O

— ChEMBL document CHEMBL3621134, “Cyclic Peptides Incorporating Phosphotyrosine Mimetics as Potent and Specific Inhibitors of the Grb7 Breast Cancer Target” (J Med Chem, 2015)
